Data published in patent US8969577B2, “Curable composition comprising a thermolatent base” (BASF SE, priority 2008, dated 2015).

Assay: Curing of powder coating formulation, conversion of epoxy groups by ATR-IR
Conditions: for Conversion 5′ 100° C. / Conversion 5′ 130° C. / Conversion 5′ 150° C. / Conversion 5′ 180° C.: Table 4, amount 1 wt. %; for Conversion 5′ 100° C. / Conversion at 5′ 100° C.: 5 min 100° C.; for Conversion 5′ 130° C. / Conversion at 5′ 130° C.: 5 min 130° C.; for Conversion 5′ 150° C. / Conversion at 5′ 150° C.: 5 min 150° C.; for Conversion 5′ 180° C.: 5 min 180° C.; for Conversion at 15′ 120° C.: 15 min 120° C.
Experimental: A powder coating formulation consisting of an acidic functional polyester and an epoxy functional polymer that cures without a catalyst at 200° C. for 20 minutes is used. The solid coating formulation is dissolved at 50% solids in methyl-iso-butyl ketone for ease of application. The curing catalyst is added in varying amounts from 0.5 up to 1.5% by weight, based on solids. The thermolatent compounds are compared with imidazole or compound 1 as a reference base. The formulation is applied at wet thickness 250 μm using a wire bar. The solvent is evaporated at room temperature during 30 minutes, and the coating formulation is cured for given times and at the specified temperature (cf. Tables 2 to 4). The curing progress is evaluated using attenuated total reflection infrared (IR) spectroscopy. The fading of the epoxy-attributable peak at 899-921 cm^−1 in comparison to the stable reference peak at 814-841 cm^−1 is used for the calculation of the conversion of epoxy groups.

Compound | Conversion 5′ 100° C. [%] | Conversion 5′ 130° C. [%] | Conversion 5′ 150° C. [%] | Conversion 5′ 180° C. [%] | Conversion at 5′ 100° C. (amount 0.5 wt. %) [%] | Conversion at 15′ 120° C. (amount 0.5 wt. %) [%] | Conversion at 5′ 130° C. (amount 0.5 wt. %) [%] | Conversion at 5′ 150° C. (amount 0.5 wt. %) [%] | Conversion at 5′ 130° C. (amount 1.0 wt. %) [%] | Conversion at 5′ 150° C. (amount 1.0 wt. %) [%] | Conversion at 5′ 130° C. (amount 1.5 wt. %) [%] | Conversion at 5′ 150° C. (amount 1.5 wt. %) [%]
CN(C)CCCNc1ccc2ccccc2n1 [Compound 16] | 0 | 0 | 20 | 100 |  |  |  |  |  |  |  | 
C1=CC2=NCCN2C=C1 [Compound 1, reference compound] |  |  |  |  | 13 | 98 |  |  |  |  |  | 
c1c[nH]cn1 [imidazole, reference compound] | 53 | 74 | 100 | 100 | 26 | 100 | 35 | 100 |  |  |  | 
CCNC(=O)OCCNc1ccccn1 [Compound 7] |  |  |  |  |  |  |  |  | 14 | 95 | 29 | 93
CC(C)(C)OC(=O)OCCNc1ccccn1 [Compound 3] |  |  |  |  |  |  |  |  | 22 | 94 | 23 | 100
OCCNc1ccccn1 [Compound 2, 2-(pyridine-2-ylamino)ethanol] |  |  |  |  |  |  | 26 | 97 |  |  |  | 
